One may read the NOAEL as the highest tested level that showed no adverse finding. As usually defined, the LOAEL is the lowest dose or exposure tested at which an adverse effect was seen.

The results in this text go back to EPA's ToxValDB 9.5.

Series [1] relates to Rattus norvegicus. The settings on record: for LEL: uterotrophic, Active; for LOEL / NOEL: Hershberger, gavage.
In series [2] the test system is Rattus norvegicus. The following applies: for NEL / LEL: Wistar; for NOAEL / LOAEL: Crl:WI (Han).
Setting [3] is: duration: 10 days, oral, Sprague-Dawley, inactive + Negative + Negative + neither + negative.
Where [4] appears, read: chronic, duration: 123 days, oral, gavage, F, Heart: Heart Weight, Relative.
[5] abbreviates: chronic, duration: 123 days, oral, gavage, F, Kidney: Kidney, Cortical Tubular Dilation, Multifocal + Whole Body: Body Weight Change.
Where [6] appears, read: reproduction developmental, duration: 90 days, oral, gavage, M, generation: P0, P0: General Toxicity: Whole Body: Body Weight Change + P0: General Toxicity: Whole Body: Body Weight, Absolute + P0: General Toxicity: Whole….
[7] abbreviates: reproduction developmental, duration: 123 days, oral, gavage, F, generation: P0, P0: General Toxicity: Whole Body: Body Weight Change + P0: General Toxicity: Whole Body: Body Weight, Absolute + P0: General Toxicity: Whole….
The mark [8] stands for this setting: subchronic, duration: 90 days, oral, gavage, M, Kidney: Blood Urea Nitrogen (BUN), Blood + Kidney: Kidney, Cortical Tubular Dilation, Multifocal + Whole Body: Body Weight Change.

SMILES strings stand for the structures. “And” between values parts separate entries of the source, which are not always exact repeats. Identical values can stand only once.

Turning to `C[C@H]1CCC[C@@H](O)CCCCCc2cc(O)cc(O)c2C(=O)O1` [Taleranol], the LEL in series [1] (duration: 3 days, oral) is 0.06 mg/day.

Turning to `Cc1c2ccccc2c(C)c2c1ccc1ccccc12` [7,12-Dimethylbenz(a)anthracene], the LEL in series [1] (duration: 1 days, injection, subcutaneous) came out at 15 mg/kg-day.

Regarding `CCCCCCC(=O)O[C@H]1CC[C@H]2[C@@H]3CCC4=CC(=O)CC[C@]4(C)[C@H]3CC[C@]12C` [Testosterone enanthate], the LOEL in series [1] (duration: 10 days, oral, Sprague-Dawley, active + Androgenic + Negative + androgenic) was determined as 50 mg/kg-day.

`CCCCC(CC)CN1C(=O)C2C3C=CC(C3)C2C1=O` (centres undefined) [Octylbicycloheptenedicarboximide]: in series [1] (setting [3]), the NOEL was 700 mg/kg-day.

Take `CC(C)[C@H](C(=O)O[C@H](C#N)c1cccc(Oc2ccccc2)c1)c1ccc(Cl)cc1` [Esfenvalerate]: the NOEL in series [1] (setting [3]) was 9 mg/kg-day.

Regarding `CC(C)(C)NC(=O)[C@H]1CC[C@H]2[C@@H]3CC[C@H]4NC(=O)C=C[C@]4(C)[C@H]3CC[C@]12C` [Finasteride], the LOEL in series [1] (duration: 5 days, oral, Sprague-Dawley, active + Antiandrogenic + anti-androgenic + decreased age at PPS at 20mg/kg, increased at 80 mg/kg (with 7.8% increased liver wt at high …) is 20 mg/kg-day and 25 mg/kg-day; in series [1] (duration: 7 days, oral, Sprague-Dawley, active + Antiandrogenic + anti-androgenic + decreased age at PPS at 20mg/kg, increased at 80 mg/kg (with 7.8% increased liver wt at high …), 20 mg/kg-day and 25 mg/kg-day.

With `O=S(=O)(O)CCC(F)(F)C(F)(F)C(F)(F)C(F)(F)C(F)(F)C(F)(F)F` [6:2 Fluorotelomer sulfonic acid], the NEL in series [2] (chronic, duration: 123 days, oral, gavage, F, Blood: Albumin/Globulin (A/G) Ratio + Blood: Basophils + Blood: Calcium (CA), Blood + Blood: Chloride (CL), Blood + Blood: Cholesterol (CHOL…) is 45 mg/kg-day; in series [2] (setting [4]) it was 5 mg/kg-day; in series [2] (setting [5]), 15 mg/kg-day; in series [2] (developmental, duration: 34 days, parental, M/F, generation: F1, F1: Nipples: Nipple Retention + F1: Thyroid: Thyroid Gland Weight, Absolute + F1: Thyroid: Thyroid Gland Weight, Relative + F1: Thyroid: …), 45 mg/kg-day; in series [2] (reproduction developmental, duration: 90 days, oral, gavage, M, Whole Body: Days of Cohabitation + Whole Body: Fertility Index + Whole Body: Percent Mating), 45 mg/kg-day; in series [2] (reproduction developmental, duration: 123 days, oral, gavage, F, Ovary: Ovary Histopathology + Ovary: Ovary Weight, Absolute + Uterus: Estrous Cycle, Length + Uterus: Post-Implantation Loss + Uterus: Pre-…) it was 45 mg/kg-day. Further, the NEL in series [2] (reproduction developmental, duration: 123 days, oral, gavage, F, generation: P0, P0: Uterus: Abortions + P0: Uterus: Resorptions, Mean/Litter + P0: Vagina: Uterus (With Cervix) Weight, Absolute + P0: Vagina: Vagina …) was 45 mg/kg-day; in series [2] (subchronic, duration: 90 days, oral, gavage, M, Blood: Albumin/Globulin (A/G) Ratio + Blood: Basophils + Blood: Calcium (CA), Blood + Blood: Chloride (CL), Blood + Blood: Cholesterol (CHOL…) it was 45 mg/kg-day; in series [2] (setting [8]) it was 15 mg/kg-day. The LEL is 15 mg/kg-day in series [2] (setting [4]); 45 mg/kg-day in series [2] (setting [5]); 45 mg/kg-day in series [2] (setting [8]); 5 mg/kg-day in series [2] (subchronic, duration: 90 days, oral, gavage, M, Kidney: Kidney Weight, Absolute + Kidney: Kidney Weight, Relative + Liver: Albumin (A), Blood + Whole Body: Total Protein (TP), Blood). Also, the NOAEL turned out to be 45 mg/kg-day in series [2] (developmental, duration: 34 days, parental, M/F, generation: F1, F1: Developmental: Nipples: Nipple Retention + F1: Developmental: Thyroid: Thyroid Gland Weight, Absolute + F1: Developmental: Thyroid: …); 15 mg/kg-day in series [2] (setting [6]); 45 mg/kg-day in series [2] (reproduction developmental, duration: 90 days, oral, gavage, M, generation: P0, P0: Reproductive: Whole Body: Days of Cohabitation + P0: Reproductive: Whole Body: Fertility Index + P0: Reproductive: Whole Body: Percent …); 45 mg/kg-day in series [2] (reproduction developmental, duration: 123 days, oral, gavage, F, generation: P0, P0: Developmental: Uterus: Abortions + P0: Developmental: Uterus: Litter Loss + P0: Reproductive: Vagina: Uterus (With Cervix) Weight, …); 45 mg/kg-day in series [2] (reproduction developmental, duration: 123 days, oral, gavage, F, generation: P0, P0: Developmental: Uterus: Post-Implantation Loss + P0: Developmental: Uterus: Pre-Implantation Loss + P0: Reproductive: Ovary: Ovary …); 15 mg/kg-day in series [2] (setting [7]). In addition, the LOAEL in series [2] (setting [6]) and in series [2] (setting [7]) was 45 mg/kg-day throughout.

Consider `Nc1ncn[nH]1` [Amitrole], for which the NOEL in series [1] (duration: 10 days, oral, Wistar, inactive + Negative + Negative + anti-androgenic + negative on gonad/AST / significant thyroid effects beginning at 25 / increased SV wt …) was 125 mg/kg-day.
